From ChEMBL document CHEMBL1201862, “PubChem BioAssay data set” (2004)
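Growth conditions: 96-well plates. Treatment: test compound, 48 hours, 5 concentrations. Analysis: linear interpolation between bracketing concentrations; unreached endpoints set to highest concentration. Abbreviation: GI50, concentration required for 50% inhibition of growth.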 Calls of active or inactive are those of the source. Cut-off read from the data, not from the text of the source: active = GI50 up to about 1.1 µM and inactive = higher.

How the values were obtained:
Experiment in all cases: NCI anticancer screen, dose series, 48 h
HT-29 = test system: HT-29
SK-MEL-2 = test system: SK-MEL-2
SF-268 = test system: SF-268
SNB-19 = test system: SNB-19
RPMI-8226 = test system: RPMI-8226
SK-OV-3 = test system: SK-OV-3
SN12C = test system: SN12C
LOX IMVI = test system: LOX IMVI
K562 = test system: K562
NCI/ADR-RES = test system: NCI/ADR-RES
MCF7 = test system: MCF7
IGROV-1 = test system: IGROV-1
NCI-H522 = test system: NCI-H522
NCI-H460 = test system: NCI-H460
KM12 = test system: KM12
HOP-62 = test system: HOP-62
NCI-H226 = test system: NCI-H226
A498 = test system: A498
UO-31 = test system: UO-31
OVCAR-5 = test system: OVCAR-5

SMILES	GI50 (HT-29)	GI50 (SK-MEL-2)	GI50 (SF-268)	GI50 (SNB-19)	GI50 (RPMI-8226)	GI50 (SK-OV-3)	GI50 (SN12C)	GI50 (LOX IMVI)	GI50 (K562)	GI50 (NCI/ADR-RES)	GI50 (MCF7)	GI50 (IGROV-1)	GI50 (NCI-H522)	GI50 (NCI-H460)	GI50 (KM12)	GI50 (HOP-62)	GI50 (NCI-H226)	GI50 (A498)	GI50 (UO-31)	GI50 (OVCAR-5)
CC(C)(C)OC(=O)NCCCCC1NC(=O)[C@@H]2Cc3c([nH]c4ccccc34)C(C3CCCCC3)N2C1=O (some centres undefined)	28.1 µM (inactive)	26 µM (inactive)	54.1 µM (inactive)	57.7 µM (inactive)	12.2 µM (inactive)	53.7 µM (inactive)	39.1 µM (inactive)	31.2 µM (inactive)	30.8 µM (inactive)	57.9 µM (inactive)	30.6 µM (inactive)	56.5 µM (inactive)	45.3 µM (inactive)	29.2 µM (inactive)	23.6 µM (inactive)	41.4 µM (inactive)	75 µM (inactive)	> 100 µM (inactive)	35.1 µM (inactive)	> 100 µM (inactive)
CN(C)CCn1c(CO)nc2c1c(=O)n(C)c(=O)n2C	> 100 µM (inactive)	> 100 µM (inactive)	> 100 µM (inactive)	> 100 µM (inactive)	> 100 µM (inactive)	> 100 µM (inactive)	> 100 µM (inactive)	> 100 µM (inactive)	> 100 µM (inactive)	> 100 µM (inactive)	> 100 µM (inactive)	> 100 µM (inactive)	> 100 µM (inactive)	> 100 µM (inactive)	> 100 µM (inactive)	> 100 µM (inactive)	> 100 µM (inactive)	> 100 µM (inactive)	> 100 µM (inactive)	> 100 µM (inactive)
O=C(Nc1ccccc1C(=O)NCc1ccccc1)/C(=C/c1ccccc1O)NC(=O)c1ccccc1	> 100 µM (inactive)	> 100 µM (inactive)	54.1 µM (inactive)	> 100 µM (inactive)	> 100 µM (inactive)	48.9 µM (inactive)	> 100 µM (inactive)	98.2 µM (inactive)	> 100 µM (inactive)	88.5 µM (inactive)	5.32 µM (inactive)	73.1 µM (inactive)	> 100 µM (inactive)	> 100 µM (inactive)	4.67 µM (inactive)	27.1 µM (inactive)	> 100 µM (inactive)	> 100 µM (inactive)	65.6 µM (inactive)	> 100 µM (inactive)
CN(C)c1ccc(/C=C(\NC(=O)c2ccccc2)C(=O)Nc2ccccc2C(=O)NN2C(=O)CSC2c2ccc(N(C)C)cc2)cc1 (centres undefined)	> 100 µM (inactive)	> 100 µM (inactive)	> 100 µM (inactive)	> 100 µM (inactive)	> 100 µM (inactive)	> 100 µM (inactive)	> 100 µM (inactive)	> 100 µM (inactive)	33.3 µM (inactive)	> 100 µM (inactive)	> 100 µM (inactive)	> 100 µM (inactive)	40.6 µM (inactive)	10.7 µM (inactive)	> 100 µM (inactive)	93.1 µM (inactive)	> 100 µM (inactive)	> 100 µM (inactive)	> 100 µM (inactive)	> 100 µM (inactive)
O=C(O)CCC(=O)c1ccc2c(c1)C(C(=O)O)CC2 (centres undefined)	> 100 µM (inactive)	> 100 µM (inactive)	> 100 µM (inactive)	> 100 µM (inactive)	> 100 µM (inactive)	> 100 µM (inactive)	> 100 µM (inactive)	> 100 µM (inactive)	> 100 µM (inactive)	> 100 µM (inactive)	> 100 µM (inactive)	> 100 µM (inactive)	> 100 µM (inactive)	> 100 µM (inactive)	> 100 µM (inactive)	> 100 µM (inactive)	> 100 µM (inactive)	> 100 µM (inactive)	> 100 µM (inactive)	> 100 µM (inactive)
C=CCn1c(-c2ccc(Cl)cc2Cl)cs/c1=N\c1c(C)n(C)n(-c2ccccc2)c1=O	10.1 µM (inactive)	14.7 µM (inactive)	15.7 µM (inactive)	11.1 µM (inactive)	7.19 µM (inactive)	5.04 µM (inactive)	13.4 µM (inactive)	9.53 µM (inactive)	2.51 µM (inactive)	6.71 µM (inactive)	9.14 µM (inactive)	17 µM (inactive)	12.2 µM (inactive)	12.9 µM (inactive)	13.5 µM (inactive)	15.2 µM (inactive)	15.7 µM (inactive)	12.4 µM (inactive)	11.5 µM (inactive)	16.4 µM (inactive)
CCOc1ccc(/N=N/c2ccc3cc(/C(C)=N/NC(=O)/C(C#N)=C\c4ccc(N(CCC#N)CCC#N)cc4)c(=O)oc3c2)cc1	> 10 µM (inactive)	> 10 µM (inactive)	> 10 µM (inactive)	> 10 µM (inactive)	> 10 µM (inactive)	> 10 µM (inactive)	> 10 µM (inactive)	> 10 µM (inactive)	> 10 µM (inactive)	> 10 µM (inactive)	> 10 µM (inactive)	> 10 µM (inactive)	> 10 µM (inactive)	> 10 µM (inactive)	> 10 µM (inactive)	> 10 µM (inactive)	> 10 µM (inactive)	> 10 µM (inactive)	> 10 µM (inactive)	> 10 µM (inactive)
COc1ccc(C2(CC(C)C)CCNC2)cc1OC (centres undefined)	39.1 µM (inactive)	> 100 µM (inactive)	78.7 µM (inactive)	> 100 µM (inactive)	61.1 µM (inactive)	> 100 µM (inactive)	> 100 µM (inactive)	> 100 µM (inactive)	> 100 µM (inactive)	> 100 µM (inactive)	84.1 µM (inactive)	26.5 µM (inactive)	> 100 µM (inactive)	> 100 µM (inactive)	> 100 µM (inactive)	82.2 µM (inactive)	> 100 µM (inactive)	> 100 µM (inactive)	50.9 µM (inactive)	> 100 µM (inactive)
COC(=O)c1c2c(cc3c1CC1(C3)Cc3ccc4c(c3C1=O)CCC4)CCC2 (centres undefined)	2.58 µM (inactive)	3.98 µM (inactive)	6.31 µM (inactive)	4.12 µM (inactive)	3.23 µM (inactive)	3.93 µM (inactive)	4.2 µM (inactive)	3.9 µM (inactive)	2.2 µM (inactive)	1.92 µM (inactive)	2.45 µM (inactive)	4.99 µM (inactive)	1.66 µM (inactive)	4.84 µM (inactive)	2.64 µM (inactive)	3.25 µM (inactive)	5.09 µM (inactive)	3.42 µM (inactive)	3.05 µM (inactive)	> 21.1 µM (inactive)
CCN(CC)CCNc1c2ccccc2nc2cccc([N+](=O)[O-])c12	0.0122 µM (active)	0.0133 µM (active)	0.012 µM (active)	0.0186 µM (active)	0.00659 µM (active)	0.0343 µM (active)	0.0124 µM (active)	0.0225 µM (active)	0.0157 µM (active)	0.0112 µM (active)	0.00135 µM (active)	0.0182 µM (active)	0.00434 µM (active)	0.00622 µM (active)	0.0352 µM (active)	0.00638 µM (active)	0.0179 µM (active)	0.00782 µM (active)	0.0198 µM (active)	0.0101 µM (active)
O=C(CNc1ccc2c(=S)c3ccccc3[nH]c2c1)Nc1ccccc1-c1ccccc1NC(=O)CNc1ccc2c(=S)c3ccccc3[nH]c2c1	19.7 µM (inactive)	15.6 µM (inactive)	22 µM (inactive)	17.2 µM (inactive)	8.75 µM (inactive)	26.3 µM (inactive)	22.2 µM (inactive)	19.9 µM (inactive)	2.85 µM (inactive)	31.2 µM (inactive)	16.4 µM (inactive)	20.2 µM (inactive)	6.38 µM (inactive)	17.1 µM (inactive)	18.5 µM (inactive)	24.3 µM (inactive)	26 µM (inactive)	25.2 µM (inactive)	15.3 µM (inactive)	28.7 µM (inactive)
O=C(c1ccc2ccccc2c1)N(Cc1cccnc1)C(=S)N(Cc1cccnc1)C(=O)c1ccc2ccccc2c1	30 µM (inactive)	25.6 µM (inactive)	29.2 µM (inactive)	37.2 µM (inactive)	32.9 µM (inactive)	46.3 µM (inactive)	64 µM (inactive)	19 µM (inactive)	41.6 µM (inactive)	30 µM (inactive)	32.7 µM (inactive)	–	37.4 µM (inactive)	30.6 µM (inactive)	22 µM (inactive)	23.2 µM (inactive)	61.2 µM (inactive)	32.9 µM (inactive)	28.6 µM (inactive)	55 µM (inactive)
CC1=C[C@@H](C)C[C@]2(C)CC[C@H](O2)[C@]23CC[C@](C(=O)O)(C[C@H](O2)[C@@H]2O[C@@](C)(CC2=O)[C@@H](O)[C@H]2CC[C@@]4(CCC[C@@H](O4)[C@H](C)C(=O)O[C@H]4C[C@H]([C@]5(O)OCC[C@H](C)[C@@H]5O)O[C@H]4C=C1)O2)O3	> 10 µM (inactive)	> 6.85 µM (inactive)	> 10 µM (inactive)	> 10 µM (inactive)	> 10 µM (inactive)	> 10 µM (inactive)	> 8.55 µM (inactive)	> 6.92 µM (inactive)	> 10 µM (inactive)	> 10 µM (inactive)	> 10 µM (inactive)	> 5.5 µM (inactive)	> 7.71 µM (inactive)	> 10 µM (inactive)	> 10 µM (inactive)	> 9.59 µM (inactive)	> 5.71 µM (inactive)	> 5.75 µM (inactive)	> 10 µM (inactive)	> 10 µM (inactive)
